Experimental data as given in patent publication US20150168416A1, “KITS FOR DETECTING AND MONITORING ENDOCRINE DISRUPTING CHEMICALS (EDCs)” (THE UNITED STATES OF AMERICA, as represented by the …, priority 2012, published 2015).
“Also recorded” adds a separate entry of the source. Blank lines part the entries; values can stand above or below the compound they belong to.

Key:
Format in all cases: cell-based
[1] = molecular target: T1, GFP-GR (Rattus norvegicus, UniProt P06536, C656G/D98G); assay: GFP-GR cytoplasm-to-nucleus translocation assay (3617 cells); details: hormones 100 nM or known concentrations, water samples 100× unless specified, 30 min
T1 construct: expressed in transfected cells; host or cells: 3617 cells (derivative of the 3134 mouse mammary adenocarcinoma line), tetracycline-repressible promoter
Experimental: (§1) Prior to imaging, cells were grown overnight on 22-mm^2 coverslips in DMEM medium containing 10% charcoal stripped serum (Hyclone, Logan, Utah) without tetracycline (to allow the expression of the GFP-GR or GFP-AR, respectively) at a density of 2×10^5 per 6-well plate. For the automated experiments conducted in 96 or 384 well plates, cell density was 10, 000 or 2,500 cells per well, respectively. Cells were treated with vehicle control, hormones (100 nM) or water samples for 30 min at 37° C. at a final concentration of 100×for water samples (unless otherwise specified). Additional negative controls contained samples that tested the activity of the POCIS membranes themselves.
(§2) Upon treatment, cells were fixed with 4% paraformaldehyde in PBS for 15 minutes and washed three times with PBS. Cells on the 22-mm^2 coverslips were mounted in […]® mounting media with DAPI (Vector Laboratories, Inc.) and examined on a Leica DMRA microscope with Leica 100× 1.3-N.A. oil immersion objective. Images were acquired in green (GFP-GR and GFP-AR) and UV (DAPI) channel with SenSys (Photometrics) camera with KAF1400 chip configured to collect 0.067-μm-diameter pixels. For the automated experiments conducted in 96 or 384 well plates, cells were stained with DRAQ5 (BioStatus Limited) at a dilution of 1:5000 for 15 minutes and after three final washes with PBS were imaged either immediately on the Perkin Elmer Opera Image Screening System or kept in PBS at 4° C. for later imaging.
(§3) A Perkin Elmer Opera Image Screening System was used for fully automated collection of fluorescence images of cells. This system employed a 40×water immersion objective lens, laser illuminated Nipkow disk, and cooled CCD cameras to digitally capture high resolution confocal fluorescence micrographs (300 nm pixel size with 2×2 camera pixel binning). […] The algorithm also measured the mean GFP-GR or GFP-AR intensity in both compartments, and translocation was calculated as a ratio of these intensities. […]

[2] = molecular target: T2, GFP-AR (Homo sapiens, UniProt P10275); assay: GFP-AR cytoplasm-to-nucleus translocation assay (3108 cells); details: hormones 100 nM or known concentrations, water samples 100× unless specified, 30 min
T2 construct: expressed in transfected cells; host or cells: 3108 cells (derivative of the 3134 mouse mammary adenocarcinoma line), tetracycline-repressible promoter
Experimental: as §1, §2, §3

[3] = molecular target: T3, eGFP-ratMR (Rattus norvegicus, UniProt P22199, A771G/D487G); assay: eGFP-ratMR translocation in mammalian cells
T3 construct: expressed in transfected cells
Source text: (§4) Using molecular cloning methods essentially similar to those employed in Example 1, the following additional traceable fusion proteins have been constructed: an aryl hydrocarbon (e.g., dioxin) sensitive fusion protein, pRevTRE-GFP-mAhR (SEQ ID NOs: 9/10); a mineralocorticoid (e.g., aldosterone) sensitive fusion protein, eGFP-ratMR (SEQ ID NOs: 11/12); and a progestin-sensitive fusion protein, eGFP-hPRB (SEQ ID NOs: 13/14).

[4] = molecular target: T4, pRevTRE-GFP-mAhR (Mus musculus, UniProt P30561); assay: pRevTRE-GFP-mAhR translocation in mammalian cells
T4 construct: expressed in transfected cells
Source text: as §4

[5] = molecular target: T5, GFP-PR-B (eGFP-hPRB) (Homo sapiens, UniProt P06401); assay: GFP-PR-B translocation in clonal cell lines; details: clones 8122, 8124, 8127, 8130 (four of five tested)
T5 construct: Five mammalian clonal lines expressing the same traceable fusion protein, GFP-PR-B (eGFP-hPRB); expressed in transfected cells
Source text: Five mammalian clonal lines expressing the same traceable fusion protein, GFP-PR-B (eGFP-hPRB; SEQ ID NO: 14) were contacted with the indicated levels of progesterone, then assayed essentially as in Example 1 for translocation of the fusion protein into the nucleus from the cytoplasm.

Structure (SMILES): C[C@@]12CCC[C@H]1[C@@H]1CC(=O)C3=CC(=O)CC[C@]3(C)[C@H]1CC2 [Androst-4-en-3,6-dione]
- GFP-GR nuclear translocation [1]: did not induce GFP-GR translocation
- GFP-AR nuclear translocation [2]: induced GFP-tagged androgen receptor (GFP-AR) translocation
- GFP-AR nuclear translocation ([2]; listed as androst-4-en-3,6-dione): translocated to the nucleus in concentration-dependent manner; also recorded: induces concentration-dependent translocation
- GFP-AR nuclear translocation ([2]; listed as androst-4-ene-3,6-dione): GFP-AR nuclear translocation

- eGFP-ratMR translocation [3]: exhibited the expected translocation
Structure (SMILES): C[C@]12CCC(=O)C=C1CC[C@@H]1[C@@H]2[C@@H](O)C[C@]2(C=O)[C@@H](C(=O)CO)CC[C@@H]12 [aldosterone]

Structure (SMILES): CCNc1nc(Cl)nc(NC(C)C)n1 [atrazine]
- GFP-GR nuclear translocation [1]: did not induce GFP-GR translocation

Structure (SMILES): C[C@]12C[C@H](O)[C@H]3[C@@H](CCC4=CC(=O)CC[C@@]43C)[C@@H]1CC[C@@H]2C(=O)CO [corticosterone]
- GFP-GR nuclear translocation [1]: translocates to the nucleus in a concentration-dependent manner; also recorded: GFP-GR translocation

- pRevTRE-GFP-mAhR translocation [4]: exhibited the expected translocation
Structure (SMILES): C1=COC=CO1 [dioxin]

Structure (SMILES): CC(=O)[C@H]1CC[C@H]2[C@@H]3CCC4=CC(=O)CC[C@]4(C)[C@H]3CC[C@]12C [progesterone]
- GFP-PR-B translocation [5]: exhibited the expected translocation; also recorded: positive for translocation
